{"source": "patent US9333268B2", "about": "“Methods of treatment with arginine deiminase” (Polaris Group, priority 2012, dated 2016)", "key": {"[1]": {"test_system": "human pancreatic cancer cell line MIA-PaCa2", "experiment": "Western blot/ELISA of caspase 3 cleavage, LC3 and p62", "assay_type": "cell-based", "conditions": "ChQ 5 μM added to ADI-PEG 0.3 μg/mL, 72 hours", "experimental": "The human pancreatic cancer cell line MIA-PaCa2 was treated in vitro and in vivo with pegylated arginine deiminase (ADI-PEG) alone or in the presence of ChQ. Cell death was measured by propidium iodide (PI)-FACS to determine sub-G1 DNA content, and apoptosis was evaluated by Annexin V-PI flow cytometry. Cleavage of caspase 3 was evaluated by western blots and ELISA. Autophagy was measured by evaluating the expression levels of LC3 and […] p62 (p62) by western blots and ELISA.\nIn order to determine if ADI induces apoptosis and autophagy in a caspase dependent manner, cells were incubated with either ADI-PEG or a combination of ADI-PEG and ZVAD-fmk, a pan-caspase inhibitor.\nThe levels of p62, LC3B-I, and LC3B-II were measured by western blot analysis in order to examine autophagic flux."}, "SK-LC-13": {"test_system": "SK-LC-13", "experiment": "Western blot of autophagy-related protein LC3-II", "assay_type": "cell-based, human", "conditions": "24 hour incubation", "description": "Following washing, the membranes were then probed with the appropriate secondary antibody before proteins were finally visualized using ECL reagent (Perkin-Elmer, Fremont Calif., USA).\nAn assay for the formation of the autophagy-related protein LC3-II assessed if treatment with ADI-PEG 20 was able to induce cellular autophagy in SCLC. […] Chloroquine is a known inhibitor of autophagy that disrupts normal lysosomal functions, and thus results in an increase in the cellular level of LC3-II."}, "SK-LC-13 cells": {"test_system": "SK-LC-13 cells", "experiment": "FACS analysis of apoptosis by sub-G1 DNA content (propidium iodide)", "assay_type": "cell-based, human", "conditions": "25 nM, 72 h", "experimental": "Apoptosis was measured by FACS of propidium-iodide-stained cells as detailed by Riccardi et al (Riccardi and Nicoletti, Nat Protoc 1(3):1458-1461, 2006). Cells were plated in 24-well plates and treated with ADI-PEG 20 for […]. Cells were then harvested, washed and fixed in 70% ethanol. DNA was then stained using 20 μg ml^−1 propidium iodide containing 10 μgml^−1 DNAse-free RNAse A (Sigma-Aldrich). Cells were then read on a BD FACSCalibur (BD Biosciences) and analyzed using Flow Jo Software (Tree Star, Ashland, Oreg., USA).\nIn order to determine the possible mechanism of the antiproliferative effects of ADI-PEG 20 a FACS analysis of apoptosis by sub-G1 DNA content was performed. Cells were treated for 72 h before the analysis was performed."}}, "note": "Counter-ions that a name gives are not always drawn.", "data": [{"smiles": "CCN(CCO)CCCC(C)Nc1ccnc2cc(Cl)ccc12", "note": "(stereo not drawn) [ChQ, hydroxychloroquine]", "values": [{"measurement": "ADI induced apoptosis", "setting": "[1]", "result": "enhanced ADI induced apoptosis"}, {"measurement": "LC3B-I and LC3B-II", "setting": "[1]", "result": "increase in the build up of both LC3B-I and LC3B-II"}, {"measurement": "autophagic flux", "setting": "[1]", "result": "diminished autophagic flux"}, {"measurement": "level of p62", "setting": "[1]", "result": "increase in the level of p62"}]}, {"smiles": "CCN(CC)CCCC(C)Nc1ccnc2cc(Cl)ccc12", "note": "(stereo not drawn) [chloroquine, reference compound]", "values": [{"measurement": "cellular level of LC3-II", "setting": "SK-LC-13", "result": "very robust expression of LC3-II"}]}, {"smiles": "CC[C@@]1(O)C(=O)OCc2c1cc1n(c2=O)Cc2cc3c(CN(C)C)c(O)ccc3nc2-1", "note": "[topotecan, Topotecan hydrochloride, reference compound]", "values": [{"measurement": "cells in apoptosis (sub-G1 DNA content)", "setting": "SK-LC-13 cells", "result": "around 45%"}]}]}
